We go through ten compounds from ChEMBL document CHEMBL1201862, “PubChem BioAssay data set” (2004).

Among the test systems are HCT-15; NCI/ADR-RES; OVCAR-5; A498; MOLT-4; OVCAR-4; NCI-H522; SF-539; CCRF-CEM; 786-0; T47D; MDA-N; M14; NCI-H23; SN12C; NCI-H226; TK-10; SNB-75; MDA-MB-435; BT-549.
Holding throughout (test): NCI-60 cell line screen, 48 h

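Compound exposure: 48 hours, 5 concentrations, 96-well plates. The concentration for 50% growth inhibition is given as GI50.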 Activity calls are given as the source filed them. Rule as the data show it: active = GI50 up to about 1.1 µM and inactive = higher.

Regarding `CN(C)Cc1cc(/N=N/c2cccc(Cl)c2)ccc1O`, the GI50 was 4.9 µM in the assay on HCT-15; 5.05 µM (inactive) in the assay on NCI/ADR-RES; 14.9 µM (inactive) in the assay with OVCAR-5; 10.9 µM (inactive) with A498; 13.2 µM (inactive) in the assay on MOLT-4; 9.86 µM (inactive) with OVCAR-4. For the same compound, the GI50 in the assay with NCI-H522 was 11.7 µM (inactive); with SF-539, 16 µM (inactive); in the assay with CCRF-CEM it was 15.8 µM (inactive); in the assay on 786-0, 13.8 µM (inactive); with T47D, 6.7 µM (inactive); in the assay on MDA-N it was 10.2 µM (inactive). Further, the GI50 in the assay on M14 was 9.66 µM (inactive); in the assay with NCI-H23, 19.9 µM (inactive); in the assay on SN12C, 28.6 µM (inactive); in the assay on NCI-H226, 17.4 µM (inactive); in the assay with TK-10, 10.6 µM (inactive); with SNB-75, 16.1 µM (inactive). Further, the GI50 in the assay with MDA-MB-435 was 4.22 µM (inactive); with BT-549, 15.9 µM (inactive).

For the compound `Cc1cc(N(CCOS(C)(=O)=O)CCOS(C)(=O)=O)ccc1/C=N/c1ccc(-c2csc(-c3ccc(Br)cc3)n2)cc1`, the GI50 is 15.2 µM in the assay with HCT-15; 15.1 µM (inactive) in the assay with NCI/ADR-RES; 17.3 µM (inactive) in the assay with OVCAR-5; 2.11 µM (inactive) in the assay with A498; 2.38 µM (inactive) in the assay with MOLT-4; 26.5 µM (inactive) in the assay with OVCAR-4. The GI50 in the assay with NCI-H522 was 0.8 µM (active); in the assay on SF-539 it was 1.17 µM (inactive); with CCRF-CEM, 1.12 µM (inactive); with 786-0, 1.84 µM (inactive); with T47D, 10.9 µM (inactive); in the assay on MDA-N, 14.7 µM (inactive). In addition, the GI50 is 9.08 µM (inactive) with M14; 5.07 µM (inactive) in the assay on NCI-H23; 10.7 µM (inactive) in the assay with SN12C; 12.6 µM (inactive) with NCI-H226; 7.57 µM (inactive) with TK-10; 3.99 µM (inactive) with SNB-75. In addition, the GI50 was 17.2 µM (inactive) with MDA-MB-435 and 20.5 µM (inactive) with BT-549.

For `N#C/C(N)=C(C#N)/N=C/NCCO`, the GI50 was above 100 µM in the assay on HCT-15; > 100 µM (inactive) in the assay on NCI/ADR-RES; > 100 µM (inactive) with OVCAR-5; > 100 µM (inactive) with A498; > 100 µM (inactive) in the assay with MOLT-4; > 100 µM (inactive) in the assay with OVCAR-4. In addition, the GI50 in the assay with NCI-H522, in the assay on SF-539, in the assay on CCRF-CEM, with 786-0, in the assay with T47D and in the assay with MDA-N was > 100 µM (inactive) throughout. Further, the GI50 in the assay with M14, in the assay on NCI-H23, in the assay with SN12C, in the assay on NCI-H226, in the assay with TK-10 and in the assay on SNB-75 was > 100 µM (inactive) throughout. The GI50 in the assay with MDA-MB-435 and in the assay on BT-549 was > 100 µM (inactive) in each case.

Turning to `Cc1ccc(/N=N/C(=N\c2ccc(F)cc2)c2ccc(N(CCC#N)CCC#N)cc2)cc1`, the GI50 is above 100 µM in the assay with HCT-15; > 100 µM (inactive) in the assay with NCI/ADR-RES; > 100 µM (inactive) in the assay with OVCAR-5; > 100 µM (inactive) in the assay with A498; > 100 µM (inactive) with MOLT-4; 60.3 µM (inactive) in the assay with OVCAR-4. Moreover, the GI50 in the assay on NCI-H522 was 19.2 µM (inactive); in the assay with SF-539 it was > 100 µM (inactive); with CCRF-CEM, 97.5 µM (inactive); with 786-0 it was > 100 µM (inactive); in the assay on T47D, 47.1 µM (inactive); with MDA-N, > 100 µM (inactive). In addition, the GI50 in the assay with M14, in the assay on NCI-H23, with SN12C, with NCI-H226, in the assay on TK-10 and in the assay with SNB-75 was > 100 µM (inactive) throughout. Moreover, the GI50 with MDA-MB-435 was 82.2 µM (inactive); in the assay with BT-549, 67.8 µM (inactive).

On to `COc1cc(OC)c(/C=C\c2cc(/C=C/c3c(OC)cc(OC)cc3OC)c3ccccc3[n+]2C)c(OC)c1`, for which the GI50 in the assay on HCT-15 is 0.719 µM; in the assay with NCI/ADR-RES it was > 100 µM (inactive); in the assay with OVCAR-5, 13.2 µM (inactive); with A498, 4.59 µM (inactive); in the assay on MOLT-4, 1.98 µM (inactive); in the assay with OVCAR-4 it was 8.39 µM (inactive). In addition, the GI50 in the assay on NCI-H522 was 1.96 µM (inactive); in the assay on SF-539, 2.22 µM (inactive); in the assay with CCRF-CEM it was 1.38 µM (inactive); in the assay on 786-0 it was 2.2 µM (inactive); in the assay on T47D, 2.37 µM (inactive); in the assay with MDA-N it was 2.65 µM (inactive). For the same compound, the GI50 is 2.56 µM (inactive) in the assay with M14; 2.76 µM (inactive) with NCI-H23; 2.18 µM (inactive) with SN12C; 5.96 µM (inactive) in the assay on NCI-H226; 16 µM (inactive) in the assay on TK-10; 2.77 µM (inactive) in the assay on SNB-75. For the same compound, the GI50 in the assay with MDA-MB-435 is 2.48 µM (inactive); in the assay on BT-549, 4.1 µM (inactive).

Take `N#CC(C#N)=Cc1ccc(C=C2SC3=C(SCCS3)S2)s1`: the GI50 in the assay with HCT-15 was 0.818 µM; with NCI/ADR-RES it was 1.63 µM (inactive); in the assay with OVCAR-5 it was 3.72 µM (inactive); in the assay with A498, 10.4 µM (inactive); in the assay with MOLT-4 it was 2.59 µM (inactive); in the assay with OVCAR-4, 9.68 µM (inactive). Also, the GI50 in the assay on NCI-H522 is 2.99 µM (inactive); in the assay with SF-539 it was 0.63 µM (active); with CCRF-CEM, 2.48 µM (inactive); with 786-0, 13.4 µM (inactive); in the assay with T47D it was > 100 µM (inactive); in the assay on MDA-N it was 0.618 µM (active). Moreover, the GI50 in the assay with M14 was 12.4 µM (inactive); with NCI-H23 it was 6.68 µM (inactive); in the assay with SN12C, 66.2 µM (inactive); in the assay on NCI-H226, 2.27 µM (inactive); in the assay on TK-10, 2.07 µM (inactive); in the assay on SNB-75, 16.7 µM (inactive). Moreover, the GI50 in the assay with MDA-MB-435 was 0.82 µM (active); in the assay on BT-549, 1.28 µM (inactive).

`COc1cc2cccc(N)c2cc1OC`: the GI50 is above 100 µM with HCT-15; > 100 µM (inactive) in the assay with NCI/ADR-RES; > 100 µM (inactive) in the assay on OVCAR-5; > 100 µM (inactive) with A498; > 100 µM (inactive) in the assay with MOLT-4; > 100 µM (inactive) in the assay with OVCAR-4. The GI50 in the assay on NCI-H522 is > 100 µM (inactive); with SF-539, > 100 µM (inactive); in the assay on CCRF-CEM, > 80.5 µM (inactive); with 786-0, > 100 µM (inactive); with T47D it was > 100 µM (inactive); with MDA-N it was > 100 µM (inactive). Also, the GI50 was > 100 µM (inactive) with M14; > 100 µM (inactive) in the assay with NCI-H23; > 100 µM (inactive) with SN12C; > 100 µM (inactive) in the assay on NCI-H226; > 26.3 µM (inactive) in the assay on TK-10; > 100 µM (inactive) in the assay with SNB-75. Besides, the GI50 in the assay with MDA-MB-435 was > 100 µM (inactive); in the assay on BT-549 it was > 66.7 µM (inactive).

As for `Nc1nncs1`, the GI50 with HCT-15 is 853 µM; in the assay on NCI/ADR-RES, 1510 µM (inactive); in the assay with OVCAR-5 it was 1870 µM (inactive); in the assay on A498 it was 867 µM (inactive); in the assay on MOLT-4, 695 µM (inactive); with OVCAR-4, 853 µM (inactive). Also, the GI50 with NCI-H522 was 1210 µM (inactive); in the assay with SF-539, 3560 µM (inactive); in the assay on CCRF-CEM, 1010 µM (inactive); with 786-0 it was 4080 µM (inactive); with T47D it was > 3040 µM (inactive); with MDA-N, 1950 µM (inactive). The GI50 is 1580 µM (inactive) with M14; 1640 µM (inactive) in the assay with NCI-H23; 3040 µM (inactive) in the assay on SN12C; 3480 µM (inactive) with NCI-H226; > 5000 µM (inactive) in the assay on TK-10; 1440 µM (inactive) in the assay with SNB-75. Moreover, the GI50 in the assay on MDA-MB-435 is 1630 µM (inactive); in the assay with BT-549, 1940 µM (inactive).

For `O=C(Nc1cccc(NC(=O)C(=O)C2CCC3=C(Sc4ccccc4N3)C2=O)n1)C(=O)C1CCC2=C(Sc3ccccc3N2)C1=O` (stereo not drawn), the GI50 with HCT-15 is 30.7 µM; with NCI/ADR-RES, 40.8 µM (inactive); in the assay on OVCAR-5, > 100 µM (inactive); in the assay on A498, > 100 µM (inactive); in the assay with MOLT-4, 68.9 µM (inactive); in the assay on OVCAR-4 it was 18.9 µM (inactive). Further, the GI50 was 74.6 µM (inactive) with NCI-H522; 13.1 µM (inactive) in the assay on SF-539; 70.1 µM (inactive) in the assay with CCRF-CEM; 91.8 µM (inactive) in the assay on 786-0; 50.4 µM (inactive) in the assay on T47D; 40.2 µM (inactive) with MDA-N. Also, the GI50 is 86.3 µM (inactive) in the assay with M14; 68.9 µM (inactive) in the assay on NCI-H23; 74.3 µM (inactive) in the assay on SN12C; 26.5 µM (inactive) with NCI-H226; 9.68 µM (inactive) in the assay on SNB-75; 85.9 µM (inactive) in the assay with MDA-MB-435. In addition, the GI50 in the assay with BT-549 was 79.6 µM (inactive).

Turning to `O=[N+]([O-])C(=C(Nc1ccccc1)Nc1ccccc1)C(Cl)=C(Cl)Cl`, the GI50 with HCT-15 was 16.3 µM; in the assay on NCI/ADR-RES it was 22.6 µM (inactive); with OVCAR-5 it was 23.1 µM (inactive); with A498, 9.93 µM (inactive); in the assay with OVCAR-4, 12.2 µM (inactive); in the assay with NCI-H522, 21.4 µM (inactive). Also, the GI50 in the assay with SF-539 is 20.2 µM (inactive); in the assay with CCRF-CEM it was 8.04 µM (inactive); in the assay on 786-0, 15.8 µM (inactive); in the assay with T47D, 19.3 µM (inactive); in the assay with MDA-N, 12.6 µM (inactive); in the assay with M14 it was 18.2 µM (inactive). Moreover, the GI50 in the assay on NCI-H23 was 13.6 µM (inactive); with SN12C, 17.1 µM (inactive); with NCI-H226, 19 µM (inactive); in the assay on TK-10, 22.6 µM (inactive); in the assay on SNB-75 it was 19.1 µM (inactive); in the assay with MDA-MB-435, 15.3 µM (inactive). For the same compound, the GI50 in the assay on BT-549 was 13.9 µM (inactive).
